Data: the supplement of paper PMC8882468

Assays:
Experiment in all cases: CTG-3D luminescence at 96 h relative to day-0 seeding control (ratio to day 0); higher = more growth / less cytotoxicity; PDxO 3D drug screen (set 2), 96 h, CTG-3D normalised to day-0 seeding control.
HCI-003.E2 = tested on: HCI-003.E2 (organoid from an ER-positive breast cancer xenograft)
HCI-027 = tested on: HCI-027 (organoid from a triple-negative breast cancer xenograft)
HCI-005.E2 = tested on: HCI-005.E2 (organoid from a breast cancer xenograft with a HER2-positive history)
HCI-017.E2 = tested on: HCI-017.E2 (organoid from an ER-positive breast cancer xenograft)
HCI-016 = tested on: HCI-016 (organoid from a triple-negative breast cancer xenograft)
HCI-010 = tested on: HCI-010 (organoid from a breast cancer xenograft)

Cc1c(CN2CCN(C(=O)[C@H](C)O)CC2)sc2c(N3CCOCC3)nc(-c3cnc(N)nc3)nc12 [apitolisib]
CTG-3D luminescence at 96 h
Settings | 12.5 pM | 0.00025 µM | 0.005 µM | 0.1 µM | 1 µM | 10 µM | 100 µM | 625 fM
HCI-003.E2 | 2.46 | 2.27 | 2.31 | 1.31 | 0.0639 | 0.0361 | 0.0424 | 2.82
HCI-005.E2 | 1.87 | 2.22 | 2.35 | 1.75 | 0.429 | 0.481 | 0.444 | 2.21
HCI-017.E2 | 2.28 | 2.54 | 2.21 | 1.43 | 0.397 | 0.399 | 0.223 | 2.43

CTG-3D luminescence at 96 h
Settings | 12.5 pM | 0.00025 µM | 0.005 µM | 0.1 µM | 1 µM | 10 µM | 100 µM | 625 fM
HCI-010, days in culture: 79 | 1.94 | 1.83 | 1.96 | 1.68 | 0.503 | 0.107 | 0.0163 | 2.13
HCI-010, days in culture: 86 | 2.03 | 2.34 | 2.49 | 1.94 | 0.554 | 0.242 | 0.088 | 2.27
HCI-010, days in culture: 102 | 1.17 | 1.35 | 1.21 | 0.954 | 0.286 | 0.0291 | 0.0044 | 0.944
HCI-010, days in culture: 164 | 1.71 | 1.39 | 1.57 | 1.27 | 0.641 | 0.265 | 0.0363 | 1.33
HCI-016, days in culture: 305 | 2.28 | 2.68 | 3.05 | 3.53 | 0.981 | 0.764 | 0.885 | 4.57
HCI-016, days in culture: 327 | 1.06 | 1.19 | 1.2 | 1.18 | 0.573 | 0.82 | 0.546 | 1.62
HCI-016, days in culture: 341 | 2.23 | 1.71 | 1.7 | 1.65 | 0.831 | 0.768 | 0.618 | 2.56
HCI-016, days in culture: 397 | 1.26 | 1.89 | 1.41 | 1.48 | 0.778 | 0.916 | 0.378 | 1.87
HCI-017.E2, days in culture: 85 | 2.14 | 1.73 | 1.52 | 1.36 | 0.359 | 0.278 | 0.161 | 2.09
HCI-027, days in culture: 145 | 1.36 | 2 | 1.85 | 1.14 | 0.404 | 0.297 | 0.262 | 1.64
HCI-027, days in culture: 158 | 2.21 | 2.37 | 2.99 | 2.07 | 0.609 | 1.12 | 0.342 | 6.72
HCI-027, days in culture: 164 | 1.35 | 2.18 | 2.6 | 1.92 | 0.894 | 0.441 | 0.389 | 1.48
HCI-027, days in culture: 176 | 3.68 | 2.63 | 1.06 | 1.66 | 0.9 | 0.431 | 0.271 | 1.29
HCI-027, days in culture: 186 | 1.37 | 1.93 | 1.13 | 0.973 | 0.319 | 0.706 | 0.112 | 2.34

CC(=O)c1c(C)c2cnc(Nc3ccc(N4CCNCC4)cn3)nc2n(C2CCCC2)c1=O [palbociclib]
CTG-3D luminescence at 96 h
Settings | 12.5 pM | 0.00025 µM | 0.005 µM | 0.1 µM | 1 µM | 10 µM | 100 µM | 625 fM
HCI-003.E2 | 2.52 | 2.44 | 2.53 | 2.82 | 2.21 | 1.92 | 0.594 | 2.88
HCI-005.E2 | 1.84 | 2.56 | 2.41 | 3.06 | 2.51 | 2.16 | 0.934 | 2.38
HCI-017.E2 | 2 | 2.45 | 2.1 | 2.37 | 1.98 | 2.346 | 1.25 | 2.23

CTG-3D luminescence at 96 h
Settings | 12.5 pM | 0.00025 µM | 0.005 µM | 0.1 µM | 1 µM | 10 µM | 100 µM | 625 fM
HCI-010, days in culture: 79 | 1.68 | 1.69 | 1.79 | 1.9 | 1.71 | 1.47 | 0.772 | 1.88
HCI-010, days in culture: 86 | 2.36 | 2.42 | 2.72 | 2.52 | 2.49 | 2.34 | 1.26 | 2.21
HCI-010, days in culture: 102 | 1.09 | 1.35 | 1.2 | 1.65 | 1.56 | 1.54 | 0.787 | 1.15
HCI-010, days in culture: 164 | 1.31 | 1.57 | 1.74 | 1.67 | 1.73 | 1.25 | 0.562 | 1.37
HCI-016, days in culture: 305 | 2.74 | 2.8 | 2.81 | 3.01 | 2.9 | 1.83 | 2.12 | 3.73
HCI-016, days in culture: 327 | 0.926 | 1.04 | 1.84 | 1.67 | 1.15 | 1.59 | 0.478 | 1.3
HCI-016, days in culture: 341 | 2.28 | 1.75 | 1.74 | 2.25 | 1.67 | 1.9 | 0.71 | 2.48
HCI-016, days in culture: 397 | 2 | 2.56 | 1.48 | 2.7 | 2.38 | 1.99 | 0.831 | 2.9
HCI-017.E2, days in culture: 85 | 2.34 | 1.47 | 2.15 | 2.41 | 1.66 | 1.8 | 1.58 | 1.96
HCI-027, days in culture: 145 | 1.41 | 2.02 | 1.64 | 1.26 | 1.55 | 0.841 | 0.458 | 1.58
HCI-027, days in culture: 158 | 1.35 | 1.77 | 2.1 | 1.52 | 0.941 | 0.942 | 0.608 | 3.32
HCI-027, days in culture: 164 | 2.57 | 1.87 | 1.48 | 1.63 | 1.33 | 1.31 | 0.892 | 2.8
HCI-027, days in culture: 176 | 3.61 | 2.85 | 1.73 | 2.1 | 1.82 | 0.641 | 0.373 | 2.61
HCI-027, days in culture: 186 | 1.11 | 1.93 | 2.5 | 2.42 | 0.412 | 1.4 | 0.411 | 1.67

CS(=O)(=O)CCNCc1ccc(-c2ccc3ncnc(Nc4ccc(OCc5cccc(F)c5)c(Cl)c4)c3c2)o1 [lapatinib]
CTG-3D luminescence at 96 h
Settings | 12.5 pM | 0.00025 µM | 0.005 µM | 0.1 µM | 1 µM | 10 µM | 100 µM | 625 fM
HCI-003.E2 | 2.53 | 2.41 | 2.48 | 2.27 | 1.77 | 0.0655 | 0.000467 | 2.95
HCI-005.E2 | 1.84 | 2.04 | 2.54 | 2.55 | 2.58 | 0.551 | 0.00117 | 2.11
HCI-017.E2 | 2.11 | 2.75 | 2.4 | 2.37 | 1.95 | 0.905 | 0.00683 | 2.65

CTG-3D luminescence at 96 h
Settings | 12.5 pM | 0.00025 µM | 0.005 µM | 0.1 µM | 1 µM | 10 µM | 100 µM | 625 fM
HCI-010, days in culture: 79 | 1.89 | 1.81 | 2.03 | 2.16 | 2.02 | 0.69 | -0.00188 | 2.06
HCI-010, days in culture: 86 | 2.21 | 2.38 | 2.53 | 2.49 | 2.33 | 0.631 | 0.0027 | 2.48
HCI-010, days in culture: 102 | 1.1 | 1.16 | 1.11 | 1.32 | 1.48 | 0.154 | 8.25e-05 | 1.09
HCI-010, days in culture: 164 | 1.78 | 1.5 | 1.5 | 1.46 | 1.78 | 0.353 | 0.000987 | 1.63
HCI-016, days in culture: 305 | 2.19 | 2.44 | 2.88 | 3.72 | 1.92 | 0.286 | -0.00685 | 4
HCI-016, days in culture: 327 | 1.07 | 0.931 | 1.47 | 1.74 | 1.12 | 0.284 | 0.000753 | 2.05
HCI-016, days in culture: 341 | 2.29 | 1.62 | 2.18 | 1.86 | 1.6 | 0.474 | -0.00181 | 2.42
HCI-016, days in culture: 397 | 1.92 | 2.19 | 2.02 | 2.38 | 1.32 | 0.254 | -0.000202 | 2.47
HCI-017.E2, days in culture: 85 | 2.34 | 1.93 | 1.68 | 2.32 | 1.61 | 0.581 | 0.0189 | 2.45
HCI-027, days in culture: 145 | 1.6 | 2.25 | 1.81 | 1.29 | 0.739 | 0.0785 | 0.00359 | 2.05
HCI-027, days in culture: 158 | 1.68 | 2.65 | 3.39 | 2.02 | 2.72 | 0.902 | 0.00689 | 5.17
HCI-027, days in culture: 164 | 2.91 | 1.7 | 1.91 | 1.36 | 1.57 | 0.126 | 0.00219 | 1.64
HCI-027, days in culture: 176 | 4.02 | 2.45 | 1.33 | 2.41 | 1.57 | 0.0427 | 0.00427 | 1.78
HCI-027, days in culture: 186 | 1.46 | 2.11 | 2.88 | 2.74 | 0.49 | 0.0763 | 0.00176 | 2.77

O=C(c1cc(Cc2n[nH]c(=O)c3ccccc23)ccc1F)N1CCN(C(=O)C2CC2)CC1 [olaparib]
CTG-3D luminescence at 96 h
Settings | 12.5 pM | 0.00025 µM | 0.005 µM | 0.1 µM | 1 µM | 10 µM | 100 µM | 625 fM
HCI-003.E2 | 2.72 | 2.74 | 2.72 | 2.75 | 2.24 | 1.27 | 0.0215 | 2.79
HCI-005.E2 | 1.62 | 2.3 | 2.07 | 2.39 | 2.1 | 1.27 | 0.485 | 2.24
HCI-017.E2 | 2.27 | 2.61 | 2.34 | 2.76 | 2.06 | 1.12 | 0.259 | 2.59

CTG-3D luminescence at 96 h
Settings | 12.5 pM | 0.00025 µM | 0.005 µM | 0.1 µM | 1 µM | 10 µM | 100 µM | 625 fM
HCI-010, days in culture: 79 | 2.04 | 1.79 | 2.08 | 2.11 | 1.98 | 1.43 | 0.445 | 2.19
HCI-010, days in culture: 86 | 2.3 | 2.5 | 2.59 | 2.35 | 2.34 | 1.68 | 0.309 | 2.43
HCI-010, days in culture: 102 | 1.21 | 1.27 | 1.15 | 1.36 | 1.26 | 0.657 | 0.0517 | 1.12
HCI-010, days in culture: 164 | 1.72 | 1.56 | 1.64 | 1.57 | 1.54 | 0.88 | 0.272 | 1.61
HCI-016, days in culture: 305 | 2.92 | 2.24 | 2.09 | 3.71 | 1.96 | 1.22 | 0.878 | 3.99
HCI-016, days in culture: 327 | 1.25 | 0.765 | 1.45 | 1.31 | 1.34 | 1.59 | 1.23 | 1.74
HCI-016, days in culture: 341 | 1.92 | 1.78 | 2.18 | 2.46 | 1.62 | 1.79 | 0.982 | 2.44
HCI-016, days in culture: 397 | 1.5 | 2.56 | 1.17 | 1.75 | 2.07 | 1.74 | 0.249 | 2.79
HCI-017.E2, days in culture: 85 | 2.36 | 1.92 | 1.89 | 2.06 | 1.56 | 0.709 | 0.204 | 2.56
HCI-027, days in culture: 145 | 1.79 | 3.31 | 2.66 | 1.56 | 1.71 | 2.13 | 0.976 | 1.89
HCI-027, days in culture: 158 | 1.27 | 3.16 | 2.16 | 2.6 | 1.87 | 3.12 | 1.79 | 3.17
HCI-027, days in culture: 164 | 4.1 | 1.37 | 2.13 | 2.08 | 1.58 | 0.874 | 0.555 | 2.58
HCI-027, days in culture: 176 | 3.94 | 1.97 | 1.54 | 1.61 | 2.6 | 0.771 | 0.452 | 1.65
HCI-027, days in culture: 186 | 0.87 | 1.38 | 2.3 | 3.57 | 1.26 | 1.58 | 0.34 | 3.34
